From patent US20240116946A1 (Gilead Sciences, Inc., priority 2022, published 2024)
Where two headings read alike, the source gives them in different places.

How the values were obtained:
SARS-CoV-2 main protease = SARS-CoV-2 main protease (Severe acute respiratory syndrome coronavirus 2 (2019-nCoV) (SARS-CoV-2), UniProt P0DTD1); assay: activity comparison of separated atropisomers (assay not given); details: Isomer 1 versus Isomer 2 after chiral SFC separation; used to assign stereochemistry by analogy to Example 438
SARS-CoV-2-NLuc = assay: microbe, parasite or virus in culture; assay type: cell-based, SARS Coronavirus 2
[1] = biological target: recombinant SARS-CoV-2 Main protease (Mpro) (Severe acute respiratory syndrome coronavirus 2 (2019-nCoV) (SARS-CoV-2), UniProt P0DTD1); assay: Cov Mpro Biochemical IC50 Assay; details: recombinant SARS-CoV-2 Mpro 7.5 nM, fluorogenic peptide substrate 40 μM; read-out: MPro IC50
[2] = Severe acute respiratory syndrome coronavirus, 48 h; read-out: MPro EC50
[3] = Severe acute respiratory syndrome coronavirus, 48 h, read-out: MPro EC50

| SMILES | relative activity of the two separated isomers (SARS-CoV-2 main protease) | EC50 (SARS-CoV-2-NLuc; read-out: MPro EC50) | IC50 [1] | EC50 (SARS-CoV-2-NLuc; [2]) | EC50 (SARS-CoV-2-NLuc; [3]) |
| --- | --- | --- | --- | --- | --- |
| COc1ccc2cncc(-n3c(=O)[nH]c4cc(-c5ccccc5Cl)sc4c3=O)c2c1 (single isomer, unassigned) [Example 440, 6-(2-chlorophenyl)-3-(6-methoxyisoquinolin-4-yl)thieno[3,2-d]pyrimidine-2,4(1H,3H)-dione] | more active isomer | 13.4 nM | < 3.94 nM |  |  |
| O=c1[nH]c2cc(-c3ccccc3Cl)sc2c(=O)n1-c1cncc2ccc(N3CCOCC3)cc12 (single isomer, unassigned) [Example 442, 6-(2-chlorophenyl)-3-(6-morpholinoisoquinolin-4-yl)thieno[3,2-d]pyrimidine-2,4(1H,3H)-dione] | more active isomer | 12.3 nM | < 3.43 nM |  |  |
| Cn1cc(-c2cccc(Cl)c2-c2cc3[nH]c(=O)n(-c4cncc5ccccc45)c(=O)c3s2)c(C(F)(F)F)n1 (single isomer, unassigned) [Example 447, 6-(2-chloro-6-(1-methyl-3-(trifluoromethyl)-1H-pyrazol-4-yl)phenyl)-3-(isoquinolin-4-yl)thieno[3,2-d]pyrimidine-2,4(1H,3H)-dione] | more active isomer | 6.58 nM | 4.21 nM |  |  |
| O=c1[nH]c2cc(-c3ccccc3Cl)sc2c(=O)n1-c1cncc2cccnc12 (single isomer, unassigned) [Example 464, 6-(2-chlorophenyl)-3-(1,6-naphthyridin-8-yl)thieno[3,2-d]pyrimidine-2,4(1H,3H)-dione] | more active isomer | 11.5 nM | 4.68 nM |  |  |
| COc1ccc(Cl)c(-c2cc3[nH]c(=O)n(-c4cncc5ccccc45)c(=O)c3s2)c1 (single isomer, unassigned) [Example 465, 6-(2-chloro-5-methoxyphenyl)-3-(isoquinolin-4-yl)thieno[3,2-d]pyrimidine-2,4(1H,3H)-dione] | more active isomer | 5.23 nM | < 3.56 nM |  |  |
| COc1ccc(Cl)c(-c2cc3[nH]c(=O)n(-c4cncc5cccnc45)c(=O)c3s2)c1 (single isomer, unassigned) [Example 468, 6-(2-chloro-5-methoxyphenyl)-3-(1,6-naphthyridin-8-yl)thieno[3,2-d]pyrimidine-2,4(1H,3H)-dione] | more active isomer | < 6.34 nM | < 2.54 nM |  |  |
| COc1ccc(Cl)c(-c2cc3[nH]c(=O)n(-c4cncc5sc(C#N)c(C)c45)c(=O)c3s2)c1 [Example 1050, 4-(6-(2-chloro-5-methoxyphenyl)-2,4-dioxo-1,4-dihydrothieno[3,2-d]pyrimidin-3(2H)-yl)-3-methylthieno[2,3-c]pyridine-2-carbonitrile] |  |  | 8.89 nM | 25.5 nM |  |
| COc1cc(-c2cc3[nH]c(=O)n(-c4cncc5sc(C#N)c(C)c45)c(=O)c3s2)c(Cl)cc1F [Example 1051] |  |  | 6.82 nM |  | 5.16 nM |
| COc1cc(-c2cc3[nH]c(=O)n(-c4cncc5sc(C(F)F)c(C)c45)c(=O)c3s2)c(Cl)cc1F [Example 1060, 6-(2-chloro-4-fluoro-5-methoxyphenyl)-3-(2-(difluoromethyl)-3-methylthieno[2,3-c]pyridin-4-yl)thieno[3,2-d]pyrimidine-2,4(1H,3H)-dione] |  |  | 20 nM |  | 28.9 nM |
| N#CCCn1c(=O)n(-c2cncc(C#N)c2)c(=O)c2sc(-c3ccccc3Cl)cc21 [Example 1061, 5-(6-(2-chlorophenyl)-1-(2-cyanoethyl)-2,4-dioxo-1,4-dihydrothieno[3,2-d]pyrimidin-3(2H)-yl)nicotinonitrile] |  |  | 5.07 nM | 14.6 nM |  |
| COc1cc(-c2cc3c(s2)c(=O)n(-c2cncc4ccc(C#N)cc24)c(=O)n3CCC#N)c(Cl)cc1F [Example 1062] |  |  | 4.87 nM |  | 5.42 nM |
| N#CCCn1c(=O)n(-c2cncc3ccc(C#N)cc23)c(=O)c2sc(-c3ccc(F)cc3Cl)cc21 [Example 1063] |  |  | 17.9 nM |  | 39.9 nM |
| N#CCCn1c(=O)n(-c2cncc(C3CC4(COC4)C3)c2)c(=O)c2sc(-c3ccccc3Cl)cc21 [Example 1064, 3-(3-(5-(2-oxaspiro[3.3]heptan-6-yl)pyridin-3-yl)-6-(2-chlorophenyl)-2,4-dioxo-3,4-dihydrothieno[3,2-d]pyrimidin-1(2H)-yl)propanenitrile] |  |  | 24 nM | 713 nM |  |
| COc1cc(-c2cc3c(s2)c(=O)n(-c2cncc4cnn(C)c24)c(=O)n3CC(F)F)c(Cl)cc1F [Example 1065, 6-(2-chloro-4-fluoro-5-methoxy-phenyl)-1-(2,2-difluoroethyl)-3-(1-methylpyrazolo[4,3-c]pyridin-7-yl)thieno[3,2-d]pyrimidine-2,4-dione] |  |  | 7.01 nM | 13.6 nM |  |
| COc1cc(-c2cc3c(s2)c(=O)n(-c2cncc4cnn(C)c24)c(=O)n3CC(F)(F)F)c(Cl)cc1F [Example 1066] |  |  | 15.3 nM |  | 19.9 nM |
| COc1cc(-c2cc3c(s2)c(=O)n(-c2cncc4cnn(C)c24)c(=O)n3CCS(C)(=O)=O)c(Cl)cc1F [Example 1067, 6-(2-chloro-4-fluoro-5-methoxy-phenyl)-3-(1-methylpyrazolo[4,3-c]pyridin-7-yl)-1-(2-methylsulfonylethyl)thieno[3,2-d]pyrimidine-2,4-dione] |  |  | 27.2 nM | 57.8 nM |  |
| COc1cc(-c2cc3c(s2)c(=O)n(-c2cncc4cnn(C)c24)c(=O)n3CCN(C)C)c(Cl)cc1F [Example 1068] |  |  | 74.2 nM |  | 219 nM |
| COCCn1c(=O)n(-c2cncc3cnn(C)c23)c(=O)c2sc(-c3cc(OC)c(F)cc3Cl)cc21 [Example 1069] |  |  | 38.9 nM |  | 130 nM |
| COc1cc(-c2cc3c(s2)c(=O)n(-c2cncc4cnn(C)c24)c(=O)n3CCO)c(Cl)cc1F [Example 1070] |  |  | 19.8 nM |  | 30.8 nM |

| SMILES | relative activity of the two separated isomers (SARS-CoV-2 main protease) | EC50 (SARS-CoV-2-NLuc; read-out: MPro EC50) | IC50 [1] | EC50 (SARS-CoV-2-NLuc; [2]) | EC50 (SARS-CoV-2-NLuc; [3]) |
| --- | --- | --- | --- | --- | --- |
| COc1cc(-c2cc3c(s2)c(=O)n(-c2cncc4cnn(C)c24)c(=O)n3CC2CCCN2C)c(Cl)cc1F (centres unmarked) [Example 1071] |  |  | 102 nM |  | 306 nM |
| COc1cc(-c2cc3[nH]c(=O)n(-c4cncc5cccc(Cl)c45)c(=O)c3s2)c(Cl)cc1F [Example 1074] |  | 5.89 nM | 4.32 nM |  |  |
| COc1cc(-c2cc3[nH]c(=O)n(-c4cncc5cccc(Cl)c45)c(=O)c3s2)c(Cl)cc1F [Example 1075] |  | 11.7 nM | 14.8 nM |  |  |
| COc1cc(-c2cc3[nH]c(=O)n(-c4cncc5cccc(Cl)c45)c(=O)c3s2)c(Cl)cc1F [Example 1078] |  |  | 8.83 nM | 9.65 nM |  |
| COc1cc(-c2cc3[nH]c(=O)n(-c4cncc5c4OCCC5)c(=O)c3s2)c(Cl)cc1F [Example 1079] |  |  | 10.3 nM |  | 9.56 nM |
| COc1cc(-c2cc3[nH]c(=O)n(-c4cncc(C)c4Cl)c(=O)c3s2)c(Cl)cc1F [Example 1080] |  |  | 20.4 nM |  | 36 nM |
| COc1cc(-c2cc3[nH]c(=O)n(-c4cncc5c(F)cccc45)c(=O)c3s2)c(Cl)cc1F [Example 1081] |  |  | 8.16 nM |  | 17.9 nM |
| COc1cc(-c2cc3[nH]c(=O)n(-c4cncc5ncc(C)n45)c(=O)c3s2)c(Cl)cc1F [Example 1082] |  |  | 18 nM |  | 91.1 nM |
| COc1cnc(Cl)c(-c2cc3c(s2)c(=O)n(-c2cncc4cccc(F)c24)c(=O)n3CCC#N)c1 [Example 1083, 3-(6-(2-chloro-5-methoxypyridin-3-yl)-3-(5-fluoroisoquinolin-4-yl)-2,4-dioxo-3,4-dihydrothieno[3,2-d]pyrimidin-1(2H)-yl)propanenitrile] |  |  | 11.1 nM | 36.6 nM |  |
| N#CCCn1c(=O)n(-c2cncc3cccc(F)c23)c(=O)c2sc(-c3ccccc3Cl)cc21 [Example 1084] |  |  | 7.62 nM |  | 11.7 nM |
| N#CCCn1c(=O)n(-c2cncc3cccc(F)c23)c(=O)c2sc(-c3ccccc3C#N)cc21 [Example 1085] |  |  | 23.1 nM |  | 41.6 nM |
| COc1cnc(Cl)c(-c2cc3c(s2)c(=O)n(-c2cncc4nn(C)c(C)c24)c(=O)n3CCC#N)c1 [Example 1086] |  |  | 24.6 nM |  | 413 nM |
| COc1cnc(C#N)c(-c2cc3c(s2)c(=O)n(-c2cncc4nn(C)c(C)c24)c(=O)n3CCC#N)c1 [Example 1087] |  |  | 60.2 nM |  | > 1000 nM |
| COc1cc(-c2cc3c(s2)c(=O)n(-c2cncc4ccccc24)c(=O)n3CC(C)C#N)c(Cl)cc1F (centres unmarked) [Example 1096, 3-(6-(2-chloro-4-fluoro-5-methoxyphenyl)-3-(isoquinolin-4-yl)-2,4-dioxo-3,4-dihydrothieno[3,2-d]pyrimidin-1(2H)-yl)-2-methylpropanenitrile] |  |  | 10.4 nM | 15.9 nM |  |
| COc1cc(-c2cc3c(s2)c(=O)n(-c2cncc4ccccc24)c(=O)n3Cc2cc(F)c(F)c(F)c2)c(Cl)cc1F [Example 1099, 6-(2-chloro-4-fluoro-5-methoxy-phenyl)-3-(4-isoquinolyl)-1-[(3,4,5-trifluorophenyl)methyl]thieno[3,2-d]pyrimidine-2,4-dione] |  |  | 388 nM | 921 nM |  |
| COc1cc(-c2cc3c(s2)c(=O)n(-c2cncc(CO)c2)c(=O)n3CCC#N)c(Cl)cc1F [Example 1100, 3-(6-(2-chloro-4-fluoro-5-methoxyphenyl)-3-(5-(hydroxymethyl)pyridin-3-yl)-2,4-dioxo-3,4-dihydrothieno[3,2-d]pyrimidin-1(2H)-yl)propanenitrile] |  |  | 2.6 nM | 15 nM |  |
| N#CCCn1c(=O)n(-c2cncc(CO)c2)c(=O)c2sc(-c3ccccc3C#N)cc21 [Example 1101] |  |  | 36.3 nM |  | > 1000 nM |
| COc1cc(-c2cc3c(s2)c(=O)n(-c2cncc(CO)c2)c(=O)n3CCC#N)c(C#N)cc1F [Example 1102] |  |  | 4.12 nM |  | 568 nM |
